In PubChem BioAssay (NCI):
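Five concentrations, 48 hours, 96-well plates. GI50 is the concentration that inhibits growth by half. TGI denotes the concentration required for complete inhibition of growth.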

How the values were obtained:
Assay in all cases: NCI anticancer screen, dose series, 48 h
[1] = system: MDA-MB-435
[2] = system: SNB-19 CNS
[3] = system: 786-0 renal
[4] = system: RPMI-8226 leukemia
[5] = system: MALME-3M melanoma
[6] = system: NCI/ADR-RES ovarian
[7] = system: CCRF-CEM leukemia
[8] = system: NCI-H460 lung
[9] = system: SK-MEL-2 melanoma
[10] = system: SNB-75 CNS

Compound `c1cc(-c2cnn3nc(N4CCOCC4)ccc23)nc(NC2CC2)n1` has a GI50 [1] of 9.94 µM, a TGI [1] greater than 25 µM and a GI50 [2] of 10.6 µM. It also gave a TGI [2] greater than 25 µM, a GI50 [3] of 8.9 µM and a TGI [3] greater than 25 µM. It also gave a GI50 [4] of 6.71 µM, a TGI [4] greater than 25 µM and a GI50 [5] of 12.1 µM. The TGI [5] was greater than 25 µM, the GI50 [6] was 8.25 µM and the TGI [6] was greater than 25 µM. It also gave a GI50 [7] of 4.95 µM, a TGI [7] greater than 25 µM and a GI50 [8] of 6.61 µM. For the same compound, the TGI [8] was greater than 25 µM, the GI50 [9] was 7.82 µM and the TGI [9] was 21.6 µM. It also gave a GI50 [10] of 5.99 µM and a TGI [10] of 18.6 µM.

Work on `COc1cc(C(=O)/C=C/c2c(-c3cccs3)nc3ccccn23)cc(OC)c1OC` yielded a GI50 [1] of 2.49 µM, a TGI [1] of 9.52 µM and a GI50 [2] of 2.1 µM. The TGI [2] was 5.56 µM, the GI50 [3] was 2.31 µM and the TGI [3] was 7.07 µM. The GI50 [4] was 1.23 µM, the TGI [4] was 3.72 µM and the GI50 [5] was 3.65 µM. The TGI [5] was 21.7 µM, the GI50 [6] was 1.89 µM and the TGI [6] was 6.92 µM. The GI50 [7] was 1.66 µM, the TGI [7] was 6.85 µM and the GI50 [8] was 1.42 µM. The TGI [8] was 2.84 µM, the GI50 [9] was 2.27 µM and the TGI [9] was 4.35 µM. The GI50 [10] was 2.68 µM and the TGI [10] was 10.2 µM.

In the case of `Cc1ccc(C(=O)Nc2ccccc2C(=O)N/N=C(\c2ccccc2)c2ccccn2)cc1`, the GI50 [1] was 0.534 µM, the TGI [1] was greater than 100 µM and the GI50 [2] was 0.554 µM. The TGI [2] was greater than 100 µM, the GI50 [3] was 0.362 µM and the TGI [3] was greater than 100 µM. For the same compound, the GI50 [4] was 1.13 µM, the TGI [4] was greater than 100 µM and the GI50 [5] was 0.752 µM. It also gave a TGI [5] greater than 100 µM, a GI50 [6] of 0.2 µM and a TGI [6] greater than 100 µM. It also gave a GI50 [7] of 0.167 µM, a TGI [7] greater than 100 µM and a GI50 [8] of 0.211 µM. It also gave a TGI [8] greater than 100 µM, a TGI [9] greater than 100 µM and a GI50 [10] of 1.18 µM. For the same compound, the TGI [10] was greater than 39.2 µM.

`COc1cc(/C=N/O)nc(-c2ccccn2)c1` was tested, and the GI50 [1] was 0.492 µM, the TGI [1] was greater than 100 µM and the GI50 [2] was 0.558 µM. It also gave a TGI [2] greater than 100 µM, a GI50 [3] of 0.465 µM and a TGI [3] of 27.5 µM. The TGI [4] was greater than 100 µM, the GI50 [5] was 0.431 µM and the TGI [5] was 12.2 µM. It also gave a GI50 [6] of 0.294 µM, a TGI [6] of 10.9 µM and a GI50 [7] of 0.207 µM. It also gave a TGI [7] greater than 33.2 µM, a GI50 [8] of 0.304 µM and a TGI [8] of 12.9 µM. For the same compound, the GI50 [9] was 1.86 µM, the TGI [9] was greater than 100 µM and the GI50 [10] was 0.5 µM.

For `COc1cc2c(cc1-c1c(C)noc1C)ncc1[nH]c(=O)n([C@H](C)c3ccccn3)c12`, the GI50 [1] was 0.474 µM, the TGI [1] was greater than 100 µM and the GI50 [2] was 1.16 µM. The TGI [2] was greater than 100 µM, the GI50 [3] was 5.04 µM and the TGI [3] was greater than 100 µM. For the same compound, the GI50 [4] was 0.124 µM, the TGI [4] was 3.54 µM and the GI50 [5] was 1.05 µM. It also gave a TGI [5] of 76.2 µM, a GI50 [6] of 10.9 µM and a TGI [6] greater than 100 µM. The GI50 [7] was 1.03 µM, the TGI [7] was greater than 100 µM and the GI50 [8] was 11.2 µM. The TGI [8] was greater than 100 µM, the GI50 [9] was 6.07 µM and the TGI [9] was 77.6 µM. For the same compound, the GI50 [10] was less than 0.0379 µM and the TGI [10] was greater than 43.7 µM.

In the case of `Cc1sc2c(c1C)C(c1ccc(Cl)cc1)=N[C@@H](CC(=O)Nc1ccc(O)cc1)c1nnc(C)n1-2`, the GI50 [1] was 0.399 µM, the TGI [1] was 19 µM and the GI50 [2] was 0.721 µM. The TGI [2] was 31.3 µM, the GI50 [3] was 0.837 µM and the TGI [3] was 24.8 µM. It also gave a GI50 [4] of 0.168 µM, a TGI [4] of 11.8 µM and a GI50 [5] of 12.5 µM. For the same compound, the TGI [5] was 33.4 µM, the GI50 [6] was 9.45 µM and the TGI [6] was 69.7 µM. For the same compound, the GI50 [7] was 0.317 µM, the TGI [7] was 31.4 µM and the GI50 [8] was 2.95 µM. It also gave a TGI [8] of 27.4 µM, a GI50 [9] of 3.31 µM and a TGI [9] of 22 µM. For the same compound, the GI50 [10] was 0.0297 µM and the TGI [10] was 8.58 µM.

In the case of `C#CCOc1cccc(Nc2ncnc3c2ncn3C2CCN(C(=O)CCl)C2)c1` (configuration not stated), the GI50 [1] was 20.4 µM, the TGI [1] was 53.5 µM and the GI50 [2] was 35.1 µM. For the same compound, the TGI [2] was greater than 100 µM, the GI50 [3] was 18.9 µM and the TGI [3] was 36.8 µM. For the same compound, the GI50 [4] was 21 µM, the TGI [4] was 44.2 µM and the GI50 [5] was 12.3 µM. For the same compound, the TGI [5] was 28.1 µM, the GI50 [6] was 41.3 µM and the TGI [6] was greater than 100 µM. For the same compound, the GI50 [7] was 4.18 µM, the TGI [7] was 26.3 µM and the GI50 [8] was 43.2 µM. For the same compound, the TGI [8] was greater than 100 µM, the GI50 [9] was 25.7 µM and the TGI [9] was 94.9 µM. For the same compound, the GI50 [10] was 34.1 µM and the TGI [10] was greater than 100 µM.
